Results published in PubChem BioAssay AID1963871 (Molecular Pharmacology Branch, DTP, NCI, 2024).

System: KRAS-mutant PDC multicell tumor spheroid viability
Experiment: Anticancer human tumor 521955-158-R2-J5-PDC patient-derived pancreatic carcinoma cell line growth inhibition [KRAS2]
Conditions: for IC50: curve of first compound; for viability, T/C: stronger effect = lower value
Description: Multicellular complex tumor spheroid response to RAS pathway inhibitors in combination with a targeted agents in patient-derived cell lines with oncogenic KRAS variants from multiple cancer types
A high-throughput screen of multi-cell type tumor spheroids was designed to identify active combinations of targeted small molecules and KRAS pathway inhibitors. Complex spheroids include a stromal component modeled by human endothelial cells (HUVEC) and fibroblasts modeled by human mesenchymal stem cells (MSCs). The concentration ranges selected for each drug and investigational agent were based upon clinically achievable concentrations if the clinical Cmax of the agent was known.
Compounds. The drugs and investigational agents: BI-3406 (NSC825286), BAY-293 (NSC824723), batoprotafib (TNO155; NSC825523), sotorasib (AMG 510; NSC818433), MRTX1257 (NSC819558), elimusertib (BAY 1895344; NSC800525), molibresib (GSK525762; NSC774829), temuterkib (LY3214996; NSC803410), venetoclax (NSC766270), alisertib (NSC759677), olaparib (NSC753686), talazoparib (NSC767125), erdafitinib (NSC781556), ipatasertib (NSC767898), cabozantinib (NSC761068), nintedanib (NSC756659), abemaciclib (NSC768073), docetaxel (NSC628503), trametinib (NSC758246), and sapanisertib (NSC764658) were obtained from the National Cancer Institute (NCI) Developmental Therapeutics Program Chemical Repository. The FDA-approved anticancer drug set is available from the Developmental Therapeutics Program. […] The stock solutions were prepared in dimethyl sulfoxide (DMSO, Sigma-Aldrich, St. Louis, MO, cat. D2650) at 800-fold the tested concentration and stored at -70 degrees C prior to their use. All drugs and investigational agents were tested over a range starting from a high concentration at or near the clinical Cmax and decreasing in half-log increments. If the clinical Cmax for an agent had not been determined, the highest concentration tested was 10 microM.
Cell Culture. All cells were maintained in an incubator at 37 degrees C and 5% CO2 with 95% humidity. The PDC lines were cultured according to standard operating procedures established by the NCI PDMR (https://pdmr.cancer.gov/sops/default.htm). Briefly, all PDCs were thawed and cultured in Matrigel-coated flasks prepared with a working solution of 1X Ham's F-12 nutrient mix, without supplementation (Invitrogen, Waltham, MA, cat. 11765054), 100 U/mL penicillin-streptomycin (Invitrogen, cat. 15140122), and 2.5% Matrigel (Corning Inc., Corning, NY, cat. 354248) for the first three passages. All PDCs were cultured in complete DMEM/F-12 media containing advanced DMEM/F-12 (Invitrogen, cat. 12634028), 4.9% defined fetal bovine serum, heat inactivated (HyClone Laboratories Inc., Logan, UT, cat. SH30070.03HI), 389 ng/mL hydrocortisone (Sigma-Aldrich, cat. H4001), 9.7 ng/mL human EGF recombinant protein (Invitrogen, cat. PHG0313), 23.4 microg/mL adenine (Sigma-Aldrich, cat. A2786), 97.3 U/mL penicillin-streptomycin (Invitrogen, cat. 15140122), 1.9 mM L-glutamine (Invitrogen, cat. 25030081), and 9.7 microM Y-27632 dihydrochloride (Tocris Bioscience, Bristol, United Kingdom, cat. 1254). The PDCs were cultured in complete DMEM/F12 media without 9.7 microM Y-27632 dihydrochloride for at least two passages prior to the screen. The established cell line HOP-62 was cultured in RPMI 1640 medium, HEPES (Invitrogen, cat. 22400105) with 10% defined fetal bovine serum (HyClone Laboratories Inc., cat. SH30070.03) and 2 mM L-glutamine (Invitrogen, cat. 25030081). The pooled donor HUVEC were cultured in endothelial cell growth medium 2 (PromoCell, Heidelberg, Germany, cat. C-22011) and the hMSC were cultured in mesenchymal stem cell growth medium 2 (PromoCell, cat. C-28009). For all experiments, HUVEC and hMSC were used at passages </=5, while the malignant cell lines were used at passages </=15. […]

[1] = second compound 0.1 µM, first compound 0.000316 µM
[2] = second compound 0.1 µM, first compound 0.001 µM
[3] = second compound 0.1 µM, first compound 0.00316 µM
[4] = second compound 0.1 µM, first compound 0.01 µM
[5] = second compound 0.1 µM, first compound 0.0316 µM
[6] = second compound 0.316 µM, first compound 0.000316 µM
[7] = second compound 0.316 µM, first compound 0.001 µM
[8] = second compound 0.316 µM, first compound 0.00316 µM
[9] = second compound 0.316 µM, first compound 0.01 µM
[10] = second compound 0.316 µM, first compound 0.0316 µM
[11] = second compound 1 µM, first compound 0.000316 µM
[12] = second compound 1 µM, first compound 0.001 µM
[13] = second compound 1 µM, first compound 0.00316 µM
[14] = second compound 1 µM, first compound 0.01 µM
[15] = second compound 1 µM, first compound 0.0316 µM
[16] = second compound 3.16 µM, first compound 0.000316 µM
[17] = second compound 3.16 µM, first compound 0.001 µM
[18] = second compound 3.16 µM, first compound 0.00316 µM
[19] = second compound 3.16 µM, first compound 0.01 µM
[20] = second compound 3.16 µM, first compound 0.0316 µM
[21] = second compound 10 µM, first compound 0.000316 µM
[22] = second compound 10 µM, first compound 0.001 µM
[23] = second compound 10 µM, first compound 0.00316 µM
[24] = second compound 10 µM, first compound 0.01 µM
[25] = second compound 10 µM, first compound 0.0316 µM
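Note: viability read after seven days of drug exposure.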

Compound `CC(=O)Nc1cccc(-n2c(=O)n(C3CC3)c(=O)c3c(Nc4ccc(I)cc4F)n(C)c(=O)c(C)c32)c1` + COc1cc2nc(C)nc(NC(C)c3cc(N)cc(C(F)(F)F)c3)c2cc1OC1CCOC1 has an IC50 (second compound 0.1 µM) of 260 pM, an IC50 (second compound 0.316 µM) of 209 pM and an IC50 (second compound 1 µM) of 215 pM. The IC50 (second compound 3.16 µM) was 260 pM, the IC50 (second compound 10 µM) was < 100 pM and the viability, T/C (second compound 0.1 µM, first compound 0.0001 µM) was 68.5%. For the same compound, the viability, T/C [1] was 48%, the viability, T/C [2] was 26.1% and the viability, T/C [3] was 26.2%. It also gave a viability, T/C [4] of 16.3%, a viability, T/C [5] of 12.7% and a viability, T/C (second compound 0.316 µM, first compound 0.0001 µM) of 58.5%. The viability, T/C [6] was 46.4%, the viability, T/C [7] was 30.6% and the viability, T/C [8] was 24.8%. It also gave a viability, T/C [9] of 16.7%, a viability, T/C [10] of 8.98% and a viability, T/C (second compound 1 µM, first compound 0.0001 µM) of 65.2%. It also gave a viability, T/C [11] of 39.3%, a viability, T/C [12] of 31.4% and a viability, T/C [13] of 19.9%. It also gave a viability, T/C [14] of 18.1%, a viability, T/C [15] of 7.44% and a viability, T/C (second compound 3.16 µM, first compound 0.0001 µM) of 63.6%. It also gave a viability, T/C [16] of 46.9%, a viability, T/C [17] of 33.5% and a viability, T/C [18] of 21.8%. The viability, T/C [19] was 16.8%, the viability, T/C [20] was 5.44% and the viability, T/C (second compound 10 µM, first compound 0.0001 µM) was 33%. For the same compound, the viability, T/C [21] was 37.1%, the viability, T/C [22] was 26.8% and the viability, T/C [23] was 11.3%. The viability, T/C [24] was 3.5% and the viability, T/C [25] was 1.26%.

Work on `CC(C)n1nc(-c2ccc3oc(N)nc3c2)c2c(N)ncnc21` + CC1OCC2(CCN(c3cnc(Sc4ccnc(N)c4Cl)c(N)n3)CC2)C1N yielded an IC50 (second compound 0.1 µM) of 6210 pM, an IC50 (second compound 0.316 µM) of 3520 pM and an IC50 (second compound 1 µM) of 359 pM. The IC50 (second compound 3.16 µM) was < 316 pM, the IC50 (second compound 10 µM) was < 316 pM and the viability, T/C [1] was 71.5%. The viability, T/C [2] was 71.4%, the viability, T/C [3] was 56.5% and the viability, T/C [4] was 44.2%. For the same compound, the viability, T/C [5] was 32.8%, the viability, T/C (second compound 0.1 µM, first compound 0.1 µM) was 24.6% and the viability, T/C [6] was 59.1%. The viability, T/C [7] was 57.7%, the viability, T/C [8] was 51.2% and the viability, T/C [9] was 39.5%. It also gave a viability, T/C [10] of 31.2%, a viability, T/C (second compound 0.316 µM, first compound 0.1 µM) of 25.2% and a viability, T/C [11] of 48.9%. For the same compound, the viability, T/C [12] was 50.8%, the viability, T/C [13] was 45% and the viability, T/C [14] was 36.9%. The viability, T/C [15] was 28.1%, the viability, T/C (second compound 1 µM, first compound 0.1 µM) was 21.6% and the viability, T/C [16] was 47.5%. For the same compound, the viability, T/C [17] was 50.8%, the viability, T/C [18] was 37.8% and the viability, T/C [19] was 29.4%. The viability, T/C [20] was 23.4%, the viability, T/C (second compound 3.16 µM, first compound 0.1 µM) was 19.3% and the viability, T/C [21] was 47.7%. The viability, T/C [22] was 50.1%, the viability, T/C [23] was 41.2% and the viability, T/C [24] was 28.4%. The viability, T/C [25] was 24.6% and the viability, T/C (second compound 10 µM, first compound 0.1 µM) was 19.6%.
